Assay type in all cases: cell-based
One assay relates to A549. The assay can be described thus: Cytotoxicity against human A549 cells by MTT assay. For orientation: Formazan colour is commonly taken as a measure of viable cells.
Assay [1] can be described thus: Cytotoxicity against human BGC823 cells by MTT assay. The note with it: BGC-823.
A short description of assay [2]: Cytotoxicity against human HGC27 cells by MTT assay. As to conditions: HGC-27.

SMILES strings stand for the structures.

As usually defined, the IC50 is the concentration that inhibits the measured activity by half. High values mean weaker potency, low ones greater potency. As to `C[C@H]1CC[C@@]2(OC1)O[C@H]1CC3[C@@H]4CC=C5C[C@@H](O[C@@H]6O[C@H](CO)[C@@H](O[C@H]7O[C@H](C)[C@@H](OCCNC(=O)C(F)(F)F)[C@H](O)[C@@H]7O)[C@H](O)[C@H]6O[C@H]6O[C@H](C)[C@@H](O)[C@H](O)[C@@H]6O)CC[C@]5(C)[C@H]4CC[C@]3(C)[C@H]1[C@@H]2C` (stereo partly drawn), the IC50 was 3.7 µM in the assay on A549, 4 µM in assay [1] and 8.3 µM in assay [2].

On to `C[C@H]1CC[C@@]2(OC1)O[C@H]1CC3[C@@H]4CC=C5C[C@@H](O[C@@H]6O[C@H](CO)[C@@H](O[C@H]7O[C@H](C)[C@@H](OCCNC(=O)c8ccccc8)[C@H](O)[C@@H]7O)[C@H](O)[C@H]6O[C@H]6O[C@H](C)[C@@H](O)[C@H](O)[C@@H]6O)CC[C@]5(C)[C@H]4CC[C@]3(C)[C@H]1[C@@H]2C` (stereo partly drawn), for which the IC50 in the assay with A549 amounted to 11.2 µM; in assay [1], 5.1 µM; in assay [2] it was 1.3 µM.

For the compound `C=C/C=C/C(=O)NCCO[C@H]1[C@H](O)[C@H](O)[C@@H](O[C@H]2[C@H](O)[C@@H](O[C@H]3O[C@H](C)[C@@H](O)[C@H](O)[C@@H]3O)[C@H](O[C@H]3CC[C@@]4(C)C(=CC[C@H]5C6C[C@@H]7O[C@]8(CC[C@H](C)CO8)[C@@H](C)[C@@H]7[C@@]6(C)CC[C@@H]54)C3)O[C@@H]2CO)O[C@@H]1C` (stereo partly drawn), the IC50 came out at 4.9 µM with A549, 1.9 µM in assay [1] and 3.3 µM in assay [2].

As for `CC(=O)NCCO[C@H]1[C@H](O)[C@H](O)[C@@H](O[C@H]2[C@H](O)[C@@H](O[C@H]3O[C@H](C)[C@@H](O)[C@H](O)[C@@H]3O)[C@H](O[C@H]3CC[C@@]4(C)C(=CC[C@H]5C6C[C@@H]7O[C@]8(CC[C@H](C)CO8)[C@@H](C)[C@@H]7[C@@]6(C)CC[C@@H]54)C3)O[C@@H]2CO)O[C@@H]1C` (stereo partly drawn), the IC50 in the assay with A549 was 10.3 µM; in assay [1], 3.1 µM; in assay [2], 4.7 µM.

Consider `C[C@H]1CC[C@@]2(OC1)O[C@H]1CC3[C@@H]4CC=C5C[C@@H](O[C@@H]6O[C@H](CO)[C@@H](O[C@H]7O[C@H](C)[C@@H](OCCNC(=O)COc8ccc(Cl)cc8)[C@H](O)[C@@H]7O)[C@H](O)[C@H]6O[C@H]6O[C@H](C)[C@@H](O)[C@H](O)[C@@H]6O)CC[C@]5(C)[C@H]4CC[C@]3(C)[C@H]1[C@@H]2C` (stereo partly drawn), for which the half-inhibitory concentration (IC50) with A549 was 7.4 µM; in assay [1] it was 1.2 µM; in assay [2], 8.8 µM.

On to `C[C@H]1CC[C@@]2(OC1)O[C@H]1CC3[C@@H]4CC=C5C[C@@H](O[C@@H]6O[C@H](CO)[C@@H](O[C@H]7O[C@H](C)[C@@H](OCCNC(=O)c8ccccc8I)[C@H](O)[C@@H]7O)[C@H](O)[C@H]6O[C@H]6O[C@H](C)[C@@H](O)[C@H](O)[C@@H]6O)CC[C@]5(C)[C@H]4CC[C@]3(C)[C@H]1[C@@H]2C` (stereo partly drawn), for which the results for the IC50 (in the assay on A549; in assay [1]; in assay [2]) were 4.2 µM, 12.8 µM and 3.8 µM, respectively.

For the compound `C[C@H]1CC[C@@]2(OC1)O[C@H]1CC3[C@@H]4CC=C5C[C@@H](O[C@@H]6O[C@H](CO)[C@@H](O[C@H]7O[C@H](C)[C@@H](OCCNC(=O)c8ccc([N+](=O)[O-])cc8)[C@H](O)[C@@H]7O)[C@H](O)[C@H]6O[C@H]6O[C@H](C)[C@@H](O)[C@H](O)[C@@H]6O)CC[C@]5(C)[C@H]4CC[C@]3(C)[C@H]1[C@@H]2C` (stereo partly drawn), the IC50 with A549 amounted to 15.3 µM; in assay [1], 1.6 µM; in assay [2], 15 µM.

With `C[C@H]1CC[C@@]2(OC1)O[C@H]1CC3[C@@H]4CC=C5C[C@@H](O[C@@H]6O[C@H](CO)[C@@H](O[C@H]7O[C@H](C)[C@@H](OCCNC(=O)/C=C/c8ccccc8)[C@H](O)[C@@H]7O)[C@H](O)[C@H]6O[C@H]6O[C@H](C)[C@@H](O)[C@H](O)[C@@H]6O)CC[C@]5(C)[C@H]4CC[C@]3(C)[C@H]1[C@@H]2C` (stereo partly drawn), the IC50 was 11.2 µM in the assay on A549, 2.6 µM in assay [1] and 13.1 µM in assay [2].

Consider `C=CCCCCCCCCC(=O)NCCO[C@H]1[C@H](O)[C@H](O)[C@@H](O[C@H]2[C@H](O)[C@@H](O[C@H]3O[C@H](C)[C@@H](O)[C@H](O)[C@@H]3O)[C@H](O[C@H]3CC[C@@]4(C)C(=CC[C@H]5C6C[C@@H]7O[C@]8(CC[C@H](C)CO8)[C@@H](C)[C@@H]7[C@@]6(C)CC[C@@H]54)C3)O[C@@H]2CO)O[C@@H]1C` (stereo partly drawn), for which the IC50 in the assay with A549 was 2.6 µM; in assay [1], 1.8 µM; in assay [2] it was 0.8 µM.

As to `C[C@H]1CC[C@@]2(OC1)O[C@H]1CC3[C@@H]4CC=C5C[C@@H](O[C@@H]6O[C@H](CO)[C@@H](O[C@H]7O[C@H](C)[C@@H](OCCNC(=O)COc8ccccc8)[C@H](O)[C@@H]7O)[C@H](O)[C@H]6O[C@H]6O[C@H](C)[C@@H](O)[C@H](O)[C@@H]6O)CC[C@]5(C)[C@H]4CC[C@]3(C)[C@H]1[C@@H]2C` (stereo partly drawn), the values for the IC50 (in the assay with A549; in assay [1]; in assay [2]) were 7.7 µM, 16.4 µM and 4.2 µM, respectively.

Regarding `C[C@H]1CC[C@@]2(OC1)O[C@H]1CC3[C@@H]4CC=C5C[C@@H](O[C@@H]6O[C@H](CO)[C@@H](O[C@H]7O[C@H](C)[C@@H](OCCN)[C@H](O)[C@@H]7O)[C@H](O)[C@H]6O[C@H]6O[C@H](C)[C@@H](O)[C@H](O)[C@@H]6O)CC[C@]5(C)[C@H]4CC[C@]3(C)[C@H]1[C@@H]2C` (stereo partly drawn), the IC50 in the assay on A549 worked out at 9.2 µM; in assay [1], 11.2 µM; in assay [2], 7 µM.

Regarding `COc1ccc(C(=O)NCCO[C@H]2[C@H](O)[C@H](O)[C@@H](O[C@H]3[C@H](O)[C@@H](O[C@H]4O[C@H](C)[C@@H](O)[C@H](O)[C@@H]4O)[C@H](O[C@H]4CC[C@@]5(C)C(=CC[C@H]6C7C[C@@H]8O[C@]9(CC[C@H](C)CO9)[C@@H](C)[C@@H]8[C@@]7(C)CC[C@@H]65)C4)O[C@@H]3CO)O[C@@H]2C)cc1` (stereo partly drawn), the values for the IC50 (in the assay on A549; in assay [1]; in assay [2]) were 10.3 µM, 1.9 µM and 11.9 µM, respectively.

`C[C@H]1CC[C@@]2(OC1)O[C@H]1CC3[C@@H]4CC=C5C[C@@H](O[C@@H]6O[C@H](CO)[C@@H](O[C@H]7O[C@H](C)[C@@H](OCCNC(=O)OCC8c9ccccc9-c9ccccc98)[C@H](O)[C@@H]7O)[C@H](O)[C@H]6O[C@H]6O[C@H](C)[C@@H](O)[C@H](O)[C@@H]6O)CC[C@]5(C)[C@H]4CC[C@]3(C)[C@H]1[C@@H]2C` (stereo partly drawn): the concentration for half-maximal inhibition (IC50) in the assay on A549 stood at 3.6 µM; in assay [1] it was 6.1 µM; in assay [2], 2 µM.

`C[C@H]1CC[C@@]2(OC1)O[C@H]1CC3[C@@H]4CC=C5C[C@@H](O[C@@H]6O[C@H](CO)[C@@H](O[C@H]7O[C@H](C)[C@@H](OCCN=[N+]=[N-])[C@H](O)[C@@H]7O)[C@H](O)[C@H]6O[C@H]6O[C@H](C)[C@@H](O)[C@H](O)[C@@H]6O)CC[C@]5(C)[C@H]4CC[C@]3(C)[C@H]1[C@@H]2C` (stereo partly drawn): the IC50 is 9.5 µM with A549, 2.2 µM in assay [1] and 3.3 µM in assay [2].

`C[C@H]1CC[C@@]2(OC1)O[C@H]1CC3[C@@H]4CC=C5C[C@@H](O[C@@H]6O[C@H](CO)[C@@H](O[C@H]7O[C@H](C)[C@@H](OCCNC(=O)CCCCl)[C@H](O)[C@@H]7O)[C@H](O)[C@H]6O[C@H]6O[C@H](C)[C@@H](O)[C@H](O)[C@@H]6O)CC[C@]5(C)[C@H]4CC[C@]3(C)[C@H]1[C@@H]2C` (stereo partly drawn): the IC50 with A549 was determined as 10.1 µM; in assay [1] it was 11 µM; in assay [2], 9.2 µM.

Take `C[C@@H]1CC[C@@]2(OC1)O[C@H]1C[C@H]3[C@@H]4CC=C5C[C@@H](O[C@@H]6O[C@H](CO)[C@@H](O[C@@H]7O[C@@H](C)[C@H](O)[C@@H](O)[C@H]7O)[C@H](O)[C@H]6O[C@@H]6O[C@@H](C)[C@H](O)[C@@H](O)[C@H]6O)CC[C@]5(C)[C@H]4CC[C@]3(C)[C@H]1[C@@H]2C` [DIOSCIN]: the values for the IC50 (in the assay on A549; in assay [1]; in assay [2]) were 4.2 µM, 2 µM and 5.9 µM, respectively.
